PMC5974162, “Characterization of Ferredoxin-Dependent Biliverdin Reductase PCYA1 Reveals the Dual Function in Retrograde Bilin Biosynthesis and Interaction With Light-Dependent Protochlorophyllide Oxidoreductase LPOR in Chlamydomonas reinhardtii” (Frontiers in Plant Science, 2018)

Target: T1, DtenPHY1 (Dolichomastix tenuilepis, UniProt A0A097CKJ3)
T1 construct: gene PHY; Twin-Strep-tag kept; expressed in Chlamydomonas CC400 cytosol, also in E. coli LMG194/pPL-PCB as control
Experiment: zinc-dependent fluorescence of SDS-PAGE blot
Assay type: binding
Conditions: covalent; in vitro assembly with added PCB, TES pH 8.0, room temperature, ~2 h, dark; also without added PCB

T1 sequence (A0A097CKJ3 entry or part of it): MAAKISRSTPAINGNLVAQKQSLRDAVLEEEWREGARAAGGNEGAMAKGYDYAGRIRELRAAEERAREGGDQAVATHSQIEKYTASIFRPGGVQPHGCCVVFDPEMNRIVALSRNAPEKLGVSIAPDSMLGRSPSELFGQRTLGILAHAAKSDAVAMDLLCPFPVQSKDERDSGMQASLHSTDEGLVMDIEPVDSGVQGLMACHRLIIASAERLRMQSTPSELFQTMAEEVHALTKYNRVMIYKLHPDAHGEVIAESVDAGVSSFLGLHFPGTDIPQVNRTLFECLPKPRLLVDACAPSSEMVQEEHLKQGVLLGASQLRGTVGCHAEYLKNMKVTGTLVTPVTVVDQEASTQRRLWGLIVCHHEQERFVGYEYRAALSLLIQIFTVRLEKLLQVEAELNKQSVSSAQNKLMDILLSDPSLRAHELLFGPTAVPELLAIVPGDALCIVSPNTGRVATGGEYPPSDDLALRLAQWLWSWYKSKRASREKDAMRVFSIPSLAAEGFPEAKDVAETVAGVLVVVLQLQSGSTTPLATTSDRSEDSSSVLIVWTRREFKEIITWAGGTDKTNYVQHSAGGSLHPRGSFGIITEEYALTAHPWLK

CC=C1C(=Cc2[nH]c(C=C3N=C(C=C4NC(=O)C(CC)=C4C)C(C)=C3CCC(=O)O)c(CCC(=O)O)c2C)NC(=O)C1C (stereo not shown) [PCB, phycocyanobilin]
zinc-dependent fluorescence of SDS-PAGE blot: DtenPHY1 purified from Chlamydomonas CC400 covalently binds phycocyanobilin (PCB)
